From US20060252825A1, “Crystal forms of {[(2r)-7-(2,6-dichlorophenyl)-5-fluoro-2,3-dihydro-1-benzofuran-2-yl]methyl}amine hydrochloride” (Wyeth, priority 2005, published 2006)
Values joined by “and” are separate entries in the source; they are usually repeats but may differ in a detail not shown here. Identical values can stand only once. Counter-ions that a name gives are not always drawn.

Columns and labels:
Assay type in all cases: physicochemical
[1] = Assessment of stability in water (slurry at 25° C., form identified by XRPD); settings: slurried in water at 25° C.; for Form after 2 days / Form after 4 days: Table A; for Form after 2 days / Form after 4 days / Stability in water (overall summary): hydrochloride; for Stability in water (overall summary): summary of Tables A-D
Method: Form I, Form II or a mixture thereof was slurried in water at 25° C. to assess stability. […] XRPD was used to identify crystalline form.

[2] = Solubility in water, gravimetric method
Method: Solubility was measured using the gravimetric method by separately suspending Form I and Form II in water with stirring at room temperature for 6 hours.

[3] = Conversion of Form I to Form II by slurrying in water at 25° C. (XRPD); settings: slurried in water at 25° C. with stirring
Method: Form I was slurried in water for 1 day and for 5 days at 25° C. with stirring.

[4] = Conversion of Form II to Form I by slurrying in t-butylmethyl ether (XRPD); settings: slurried in t-butylmethyl ether for 4 days at room temperature
Source text: Form II was slurried in t-butylmethyl ether for 4 days at room temperature. The resulting solid was characterized by XRPD as Form I.

NC[C@H]1Cc2cc(F)cc(-c3c(Cl)cccc3Cl)c2O1 [50:50 I:II, {[(2R)-7-(2,6-dichlorophenyl)-5-fluoro-2,3-dihydro-1-benzofuran-2-yl]methyl}amine hydrochloride]
Form after 2 days ([1]; XRPD): trace I

NC[C@H]1Cc2cc(F)cc(-c3c(Cl)cccc3Cl)c2O1 [Form I, {[(2R)-7-(2,6-dichlorophenyl)-5-fluoro-2,3-dihydro-1-benzofuran-2-yl]methyl}amine hydrochloride]
solubility at 6 h ([2]; water, thermodynamic from solid, suspended in water with stirring at room temperature for 6 hours, gravimetric): 67 mg/mL | Form after 2 days ([1]; XRPD): I, trace II | Form after 4 days ([1]; XRPD): Increased amount of II | Form after 3 days ([1]; Table C, XRPD): mainly II, some I | Stability in water (overall summary) [1]: converted to Form II under most of the conditions tested | Crystalline form after 1 day ([3]; 1 day): substantial conversion of the solid from Form I to Form II | Crystalline form after 5 days ([3]; 5 days): no detectable amount of Form I

NC[C@H]1Cc2cc(F)cc(-c3c(Cl)cccc3Cl)c2O1 [Form II, {[(2R)-7-(2,6-dichlorophenyl)-5-fluoro-2,3-dihydro-1-benzofuran-2-yl]methyl}amine hydrochloride]
Relative thermodynamic stability based on solubility data ([2]; inferred from water solubility of Forms I and II, hydrochloride): thermodynamically more stable in water than Form I | Solubility-Water ([2]; suspended in water with stirring at room temperature for 6 hours, gravimetric, hydrochloride): 51 mg/mL and 50 mg/mL | Stability in water (overall summary) [1]: stable in water | Resulting solid form [4]: Form I

NC[C@H]1Cc2cc(F)cc(-c3c(Cl)cccc3Cl)c2O1 [I seeded with II, {[(2R)-7-(2,6-dichlorophenyl)-5-fluoro-2,3-dihydro-1-benzofuran-2-yl]methyl}amine hydrochloride]
Form after 2 days ([1]; XRPD): increased amount of II | Form after 4 days ([1]; XRPD): increased amount of II
